Broadly, the inhibition is how much of the control response was suppressed. In general, melting point refers to the temperature, or range, at which the solid turns liquid.

SMILES strings stand for the structures. Some results are limits rather than exact numbers.

The target in one data set is T1, Human Mineralocorticoid Receptor (hMR) (Homo sapiens, UniProt P08235).
T1 construct: To obtain the full-length hMR cDNA, pB-hMR (i) was digested with XhoI and PvuI; expressed in transfected cells; host or cells: FreeStyle 293 cells transiently transfected with pMCMVneo-hMR; supernatant of the freeze-thaw lysate (hMR lysate)
T1 sequence (P08235 1-984): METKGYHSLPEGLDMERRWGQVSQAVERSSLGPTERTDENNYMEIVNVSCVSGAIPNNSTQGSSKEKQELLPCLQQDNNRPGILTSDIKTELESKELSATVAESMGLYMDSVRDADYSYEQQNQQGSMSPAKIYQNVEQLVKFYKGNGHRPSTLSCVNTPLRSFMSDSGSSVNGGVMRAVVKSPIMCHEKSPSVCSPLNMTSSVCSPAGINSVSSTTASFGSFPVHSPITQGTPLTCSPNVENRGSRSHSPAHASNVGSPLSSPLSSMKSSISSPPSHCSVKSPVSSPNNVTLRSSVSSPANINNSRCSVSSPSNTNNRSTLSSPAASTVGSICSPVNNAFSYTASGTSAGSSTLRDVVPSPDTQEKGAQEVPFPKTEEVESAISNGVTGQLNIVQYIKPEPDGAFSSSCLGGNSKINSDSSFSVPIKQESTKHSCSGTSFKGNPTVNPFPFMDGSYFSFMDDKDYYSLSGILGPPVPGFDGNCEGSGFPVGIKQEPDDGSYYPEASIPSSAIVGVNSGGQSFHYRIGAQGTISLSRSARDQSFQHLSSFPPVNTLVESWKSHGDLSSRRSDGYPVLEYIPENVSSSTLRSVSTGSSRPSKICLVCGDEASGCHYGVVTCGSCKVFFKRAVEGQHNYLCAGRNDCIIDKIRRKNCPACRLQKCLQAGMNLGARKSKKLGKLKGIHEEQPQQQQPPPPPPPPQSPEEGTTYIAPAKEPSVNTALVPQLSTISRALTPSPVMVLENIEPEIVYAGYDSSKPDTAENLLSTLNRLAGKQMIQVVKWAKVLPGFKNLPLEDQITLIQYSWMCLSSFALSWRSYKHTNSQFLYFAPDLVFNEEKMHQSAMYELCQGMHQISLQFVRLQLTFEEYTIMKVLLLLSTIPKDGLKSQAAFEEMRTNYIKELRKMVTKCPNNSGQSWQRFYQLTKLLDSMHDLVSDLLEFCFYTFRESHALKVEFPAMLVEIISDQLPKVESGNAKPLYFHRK
As to the kind of experiment: Inhibition of binding of hMR and [3H]-aldosterone (hMR lysate, charcoal separation). The note with it: test compound at 10^−5 M; 10 nM [3H]-aldosterone; hMR lysate; 16 hr at 4° C.; read-out: Inhibition rate (at 10^−5 M). The method, then: The following procedures described in this Example were carried out according to the methods described in Molecular Cloning—Cold Spring Harbor Laboratory (1989) or protocols specified by manufacturers.
(1) Cloning of Human Mineralocorticoid Receptor (hMR) cDNA
hMR cDNA was amplified by polymerase chain reaction (PCR) from human kidney cDNA library. Full-length cDNA was constructed from two fragments of hMR cDNA amplified separately. The primers were designed referring to the nucleotide sequence of hMR cDNA reported by Arriza et. al (Science 1987; 237: 268-275).
The PCR reactions were carried out using PyrobestR® DNA polymerase (Takara). The PCR products were electrophoresed in agarose gel, and 1.7 kb (region (i)) and 1.5 kb (region (ii)) DNA fragments were recovered. Each DNA fragment was inserted into pCR®4Blunt-TOPO® vector (Invitrogen). The resulting plasmids thus obtained were designated as pB-hMR (i) and pB-hMR (ii). To obtain the full-length hMR cDNA, pB-hMR (i) was digested with XhoI and PvuI, and pB-hMR (ii) was digested with PvuI and KpnI, respectively, and the two cDNA fragments were ligated into pBlueScript®IISK+ vector (Stratagene). The resulting plasmid thus obtained was designated as pB-hMR.
pMCMVneo (described in WO03/099793) was digested with XhoI and KpnI, and 5.6 kb fragment was ligated with 2.9 kb hMR cDNA fragment obtained by digestion of pB-hMR (described in above (1)) with XhoI and KpnI. The plasmid thus obtained was designated as pMCMVneo-hMR.
FreeStyle 293 cells were inoculated at 3×10^8 cells in 270 ml FreeStyle™ 293 Expression Medium (Invitrogen) in a 1000 ml Erlenmeyer flask. The cells were treated with 30 ml of the transfection mixture containing 300 μg of pMCMVneo-hMR obtained in above (2) and 400 μl of 293fectin™ Reagent (Invitrogen). The transfected cells were cultivated for 48 hr at 37° C. in 8% CO2 atmosphere at 125 rpm. The cultivated cells were centrifuged and washed with TEG buffer (10 mM Tris-HCl (pH 7.2), 50 mM EDTA, 10% glycerol), and resuspended in 10 ml TEGM buffer (10 mM Tris-HCl (pH 7.2), 1 mM EDTA, 10% glycerol, 1 mM β-mercaptoethanol, 10 mM sodium molybdate, 1 mM dithiothreitol, 2 tablets/100 ml of protease inhibitor cocktail tablets (Roche)). The cell suspension was frozen with liquid nitrogen and thawed on ice, and ultra-centrifuged at 186,000×g for 20 min at 4° C. The supernatant fraction including hMR (hMR lysate) was collected and stored at −80° C.
(4) Measurement of Inhibition Activity Against Binding of hMR and Aldosterone
[^3H]-Aldosterone (Amersham Biosciences) as ligand was added at 10 nM to the reaction mixture including test compound at various concentration and hMR lysate (lot.19: 0.675 mg/mL, lot.20: 0.675 mg/mL, lot.21: 0.765 mg/mL, lot.22: 0.900 mg/mi, lot.23: 0.750 mg/mL) obtained in above (3) and mixture was filled up to 50.5 μl with TEGM buffer. The reaction mixture was incubated for 16 hr at 4° C. and 35 μl of dextran/gelatin coated charcoal suspension (5% charcoal, 0.5% dextran T-70 (Amersham Biosciences), 0.1% gelatin (SIGMA), 10 mM Tris HCl (pH 7.2), 1 mM EDTA) was added thereto to separate bound and free radioactive aldosterone. The mixture containing charcoal was incubated for 10 min at 4° C. and centrifuged at 910×g for 10 min at 4° C.
Radioactivity in 30 μl of the supernatant was measured by TopCount™ (Packard).
For the determination of nonspecific binding, cold Aldosterone instead of drug was added to reaction mixture at 100 μM. Specific binding was determined by subtracting nonspecific binding from total binding.
Turning to `Cc1nn(Cc2cccnc2)c(-c2ccc(F)cc2)c1-c1ccc2c(c1)NC(=O)CO2` [Example 135, 6-[5-(4-Fluorophenyl)-3-methyl-1-(pyridin-3-ylmethyl)-1H-pyrazol-4-yl]-2H-1,4-benzoxazin-3(4H)-one], the inhibition at 10 µM is at least 90%.

Take `CC(=O)Cn1nc(C)c(-c2ccc3c(c2)NC(=O)CO3)c1-c1ccc(F)cc1` [Example 87, 6-[5-(4-Fuorophenyl)-3-methyl-1-(2-oxopropyl)-1H-pyrazol-4-yl]-2H-1,4-benzoxazin-3(4H)-one]: the inhibition at 10 µM was at least 90%.

As for `Cc1nn(C[C@@H]2CCC(=O)O2)c(-c2ccc(F)cc2)c1-c1ccc2c(c1)NC(=O)CO2` [Example 159, 6-[5-(4-Fluorophenyl)-3-methyl-1-{[(2S)-5-oxotetrahydrofuran-2-yl]methyl}-1H-pyrazol-4-yl]-2H-1,4-benzoxazin-3(4H)-one], the inhibition at 10 µM was at least 90%.

On to `Cc1nn(CC(F)(F)CO)c(-c2ccc(F)cc2)c1-c1ccc2c(c1)NC(=O)CO2` [Example 109, 6-[1-(2,2-Difluoro-3-hydroxypropyl)-5-(4-fluorophenyl)-3-methyl-1H-pyrazol-4-yl]-2H-1,4-benzoxazin-3(4H)-one], for which the inhibition at 10 µM was at least 90%.

For `Cc1nn(CC(C)(C)CO)c(-c2ccc(F)cc2)c1-c1ccc2c(c1)NC(=O)CO2` [Example 125, 6-[5-(4-Fluorophenyl)-1-(3-hydroxy-2,2-dimethylpropyl)-3-methyl-1H-pyrazol-4-yl]-2H-1,4-benzoxazin-3(4H)-one], the inhibition at 10 µM is at least 90%.

On to `Cc1nn(CCC(F)(F)CO)c(-c2ccc(F)cc2)c1-c1ccc2c(c1)NC(=O)CO2` [Example 25, 6-[1-(3,3-Difluoro-4-hydroxybutyl)-5-(4-fluorophenyl)-3-methyl-1H-pyrazol-4-yl]-2H-1,4-benzoxazin-3(4H)-one], for which the inhibition at 10 µM is at least 90%.

On to `Cc1nn(CC(F)(F)CO)c(-c2ccc(F)cc2)c1-c1ccc2c(c1C)NC(=O)CO2` [Example 128, 6-[1-(2,2-Difluoro-3-hydroxypropyl)-5-(4-fluorophenyl)-3-methyl-1H-pyrazol-4-yl]-5-methyl-2H-1,4-benzoxazin-3(4H)-one], for which the inhibition at 10 µM is at least 90%.

For `Cc1nn(C)c(-c2ccc(F)cc2)c1-c1ccc2c(c1)NC(=O)CO2` [Example 1, 6-[5-(4-Fluorophenyl)-1,3-dimethyl-1H-pyrazol-4-yl]-2H-1,4-benzoxazin-3(4H)-one], the inhibition at 10 µM is at least 90%.

In the case of `Cc1nn(CC2CCOC2)c(-c2ccc(F)cc2)c1-c1ccc2c(c1)NC(=O)CO2` (stereo not drawn) [Example 146, 6-[5-(4-Fluorophenyl)-3-methyl-1-(tetrahydrofuran-3-ylmethyl)-1H-pyrazol-4-yl]-2H-1,4-benzoxazin-3(4H)-one], the inhibition at 10 µM was at least 90%.

As to `CC(=O)OCC(F)(F)Cn1nc(C)c(-c2ccc3c(c2)NC(=O)CO3)c1-c1ccc(F)cc1` [Example 26, 2,2-Difluoro-3-[5-(4-fluorophenyl)-3-methyl-4-(3-oxo-3,4-dihydro-2H-1,4-benzoxazin-6-yl)-1H-pyrazol-1-yl]propyl acetate], the inhibition at 10 µM is at least 90%.

As to `Cc1nn(CC(C)(F)F)c(-c2ccc(F)cc2)c1-c1ccc2c(c1)NC(=O)CO2` [Example 83, 6-[1-(2,2-Difluoropropyl)-5-(4-fluorophenyl)-3-methyl-1H-pyrazol-4-yl]-2H-1,4-benzoxazin-3(4H)-one], the inhibition at 10 µM is at least 90%.

For the compound `Cc1nn(CCS(C)(=O)=O)c(-c2ccc(F)cc2)c1-c1ccc2c(c1)NC(=O)CO2` [Example 6, 6-{5-(4-Fluorophenyl)-3-methyl-1-[2-(methylsulfonyl)ethyl]-1H-pyrazol-4-yl}-2H-1,4-benzoxazin-3(4H)-one], the inhibition at 10 µM was at least 90%.

Tested on in a further data set: not given
Experiment: not given
Settings: not given
In turn, `Cc1nn(C)c(-c2ccc(F)cc2)c1-c1cc(Cl)c2c(c1)NC(=O)CO2` [Example 32, 8-Chloro-6-[5-(4-fluorophenyl)-1,3-dimethyl-1H-pyrazol-4-yl]-2H-1,4-benzoxazin-3(4H)-one] came in with a melting point of 260.2 to 260.5 °C.

For `CCCCCCCCCCCCCCCC(=O)OCC(F)(F)Cn1nc(C)c(-c2ccc3c(c2)NC(=O)CO3)c1-c1ccc(F)cc1` [Example 186, 2,2-Difluoro-3-[5-(4-fluorophenyl)-3-methyl-4-(3-oxo-3,4-dihydro-2H-1,4-benzoxazin-6-yl)-1H-pyrazol-1-yl]propyl hexadecanoate], the melting point stood at 106 °C.

`CCOC(=O)OCC(F)(F)Cn1nc(C)c(-c2ccc3c(c2)NC(=O)CO3)c1-c1ccc(F)cc1` [Example 187, 2,2-Difluoro-3-[5-(4-fluorophenyl)-3-methyl-4-(3-oxo-3,4-dihydro-2H-1,4-benzoxazin-6-yl)-1H-pyrazol-1-yl]propyl ethyl carbonate] registered a melting point of 142 °C.

On to `[2H]C1([2H])Oc2ccc(-c3c(C)nn(CC(C)(F)F)c3-c3ccc(F)cc3)cc2NC1=O` [Example 174], for which the melting point is 205 to 206 °C.

Compound `CCOC(=O)CCC(=O)OCC(F)(F)Cn1nc(C)c(-c2ccc3c(c2)NC(=O)CO3)c1-c1ccc(F)cc1` [Example 185, 2,2-Difluoro-3-[5-(4-fluorophenyl)-3-methyl-4-(3-oxo-3,4-dihydro-2H-1,4-benzoxazin-6-yl)-1H-pyrazol-1-yl]propyl ethyl butanedioate] registered a melting point of 100 °C.

For the compound `CNC(=O)OCC(F)(F)Cn1nc(C)c(-c2ccc3c(c2)NC(=O)CO3)c1-c1ccc(F)cc1` [Example 198, 2,2-Difluoro-3-[5-(4-fluorophenyl)-3-methyl-4-(3-oxo-3,4-dihydro-2H-1,4-benzoxazin-6-yl)-1H-pyrazol-1-yl]propyl methylcarbamate], the melting point came to 112 °C.

Source of the values: patent US20100094000A1, “PYRAZOLE COMPOUNDS” (TAKEDA PHARMACEUTICAL COMPANY LIMITED, priority 2008, published 2010).
